Reference: US11857600B2, “GPCR heteromer inhibitors and uses thereof” (GPCR THERAPEUTICS, INC., priority 2017, dated 2024)
“Also recorded” adds a separate entry of the source.

Experiments:
CXCR4-NTSR1 heteromer = molecular target: T1, CXCR4-NTSR1 heteromer (Homo sapiens, UniProt P30989+P61073); test: Calcium mobilization assay, enhanced signaling in MDA-MB-231 cells co-expressing CXCR4 and NTSR1; format: cell-based; details: antagonist 1 μM; FIG. 8K
T1 construct: expressed in transfected cells

MDA-MB-231 cells = test: Chemotactic migration assay; format: cell-based, human; details: cells transduced with 1 MOI CXCR4 lentivirus; CXCL12 30 nM, histamine 50 nM; pyrilamine 1 μM
Experimental: Chemotaxis was quantified by counting the migrated cells on the lower surface of the membrane of 10 fields per chamber. (FIG. 19A) A representative picture of each group. […] The data represent mean±SEM (n=3 or 5). Statistically significant differences were determined by Student's t test. *P<0.05.
Since MDA-MB-231 cells express about twice more HRH1 mRNA compared with CXCR4 mRNA when measured by RT-qPCR, the MDA-MB-231 cells were transduced with small amount of lentivirus encoding CXCR4 (1 MOI) and chemotactic migration of the cells toward CXCL12 and […] was measured (FIGS. 19A and 19B).
Transwell plates (8 μm pore size polycarbonate membrane, 6.5-mm diameter) were coated with 50 μg/mL collagen for 2 h at 37° C. (Corning Inc.). MDA-MB-231 cells were serum-starved 24 h and then plated in serum-free medium containing 0.5% BSA in the top chamber (20,000 cells/100 μL). Antagonists or inverse agonists were added to the cells 30 min before plating the cells in the transwell plates. Attractants were added in the bottom chamber. Antagonists or inverse agonists were also included in the bottom chamber. After 3 h at 37° C., cells on the top transwell membrane were removed using a cotton swab, fixed, and stained with 0.1% Crystal violet. Chemotaxis was quantified by counting the migrated cells on the lower surface of the membrane of 10 fields per chamber at 10× objective.

T1 sequence (P61073 whole entry): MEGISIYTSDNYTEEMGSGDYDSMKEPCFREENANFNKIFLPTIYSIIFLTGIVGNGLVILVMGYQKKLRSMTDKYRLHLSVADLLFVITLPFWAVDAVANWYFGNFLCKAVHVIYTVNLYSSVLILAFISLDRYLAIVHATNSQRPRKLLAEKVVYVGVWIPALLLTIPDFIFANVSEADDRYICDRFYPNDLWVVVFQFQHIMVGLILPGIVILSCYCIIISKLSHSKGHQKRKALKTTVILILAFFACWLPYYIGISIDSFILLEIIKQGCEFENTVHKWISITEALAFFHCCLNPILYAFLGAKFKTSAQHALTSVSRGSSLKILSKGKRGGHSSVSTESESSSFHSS
T1 sequence (P30989 whole entry): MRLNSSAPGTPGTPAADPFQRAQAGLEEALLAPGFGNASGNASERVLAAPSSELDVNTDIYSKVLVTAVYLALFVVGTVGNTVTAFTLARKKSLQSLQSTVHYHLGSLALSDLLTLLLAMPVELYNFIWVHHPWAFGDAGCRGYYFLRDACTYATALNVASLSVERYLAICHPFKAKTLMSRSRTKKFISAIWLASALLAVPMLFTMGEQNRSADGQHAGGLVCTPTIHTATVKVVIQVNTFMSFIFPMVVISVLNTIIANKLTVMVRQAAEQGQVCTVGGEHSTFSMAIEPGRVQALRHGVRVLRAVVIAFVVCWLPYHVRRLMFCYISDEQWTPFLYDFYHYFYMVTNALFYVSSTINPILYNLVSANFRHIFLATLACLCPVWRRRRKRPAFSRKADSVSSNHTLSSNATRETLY

Structure (SMILES) | suppression of enhanced calcium signaling upon co-stimulation with CXCL12 and NTSR1 agonist (CXCR4-NTSR1 heteromer) | effect on enhanced migration upon co-stimulation with CXCL12 and histamine (MDA-MB-231 cells)
COc1cccc(OC)c1-c1cc(C(=O)NC2(C(=O)O)C3CC4CC(C3)CC2C4)nn1-c1ccnc2cc(Cl)ccc12 (centres unmarked) [meclinertant] | suppressed the enhanced calcium signaling significantly | –
COc1ccc(CN(CCN(C)C)c2ccccn2)cc1 [pyrilamine] | – | completely abolished the enhanced response; also recorded: failed to enhance the cell migration elicited by CXCL12
